{"source": "patent US20240279202A1", "about": "(NURIX THERAPEUTICS, INC., priority 2021, published 2024)", "data": [{"target": "T1, ITK (Homo sapiens, UniProt Q08881)", "T1 sequence (Q08881 1-620)": "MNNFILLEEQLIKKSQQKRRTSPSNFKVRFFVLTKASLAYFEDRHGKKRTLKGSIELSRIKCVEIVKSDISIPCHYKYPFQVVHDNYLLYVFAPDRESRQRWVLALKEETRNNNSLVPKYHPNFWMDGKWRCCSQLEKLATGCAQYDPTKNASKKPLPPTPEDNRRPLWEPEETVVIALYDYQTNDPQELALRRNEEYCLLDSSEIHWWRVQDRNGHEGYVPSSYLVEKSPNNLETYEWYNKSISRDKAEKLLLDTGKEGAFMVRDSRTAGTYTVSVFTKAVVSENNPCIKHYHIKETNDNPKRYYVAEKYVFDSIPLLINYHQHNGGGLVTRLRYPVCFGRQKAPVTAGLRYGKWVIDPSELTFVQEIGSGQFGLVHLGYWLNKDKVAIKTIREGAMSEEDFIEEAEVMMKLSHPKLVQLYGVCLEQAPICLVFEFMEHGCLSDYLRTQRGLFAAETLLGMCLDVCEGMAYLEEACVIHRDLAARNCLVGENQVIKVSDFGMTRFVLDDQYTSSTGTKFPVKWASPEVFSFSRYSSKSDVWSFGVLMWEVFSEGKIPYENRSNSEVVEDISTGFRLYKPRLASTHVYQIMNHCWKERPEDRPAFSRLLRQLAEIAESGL", "assay": "ITK degradation MSD (Meso Scale Discovery) assay", "type": "cell-based", "design": "either human Jurkat (Clone E6-1 ATCC TIB-152) or Motl4 (ATCC CRL-1552), were plated; endogenous in cells; host or cells: Jurkat clone E6-1 (ATCC TIB-152) or Molt4 (ATCC CRL-1552)", "details": "Jurkat or Molt4 cells, 4 or 6 hrs", "protocol": "ITK Degradation MSD (Meso Scale Discovery) Assay Compound dilution series (7-point, 5 fold dilutions in DMSO, rows B-H with replicate in Column 1⁄2, 3⁄4, 5⁄6, 7,8, at 2000× the final required concentrations were prepared in 96 well plates (Falcon, cat. no. 353077). Row A, Column 1-8 were control DMSO. The 2000× solutions ranged from 2 mM to 128 nM (final assay concentration range 1 μM to […]). The 2000× solutions were added to cells in […], for a final DMSO concentration of 0.5% and final assay compound concentration of 1×. For the cells, either human Jurkat (Clone E6-1 ATCC TIB-152) or Motl4 (ATCC CRL-1552), were plated at 1×10^6 cells/mL, 100 μL/well ([…]) in complete RPMI (10% FBS, 1% L-glutamine). Cells were incubated for 4 or 6 hrs at 32° C./6% CO2. Following incubation, plates were centrifuged at 1200 rpm for 5 min. supernatant was removed and 50 μL of cell lysis buffer ((MSD Tris lysis buffer (R60TX), Complete Mini EDTA-free protease inhibitor (Sigma 11836170001), Protease Inhibitor Cocktail (Sigma, P2714), Phosphatase Inhibitor Cocktail 2 and 3 (Sigma, P5726 and P0044), and Benzonase (Sigma, E1014)) was added to each well. Plates were sealed and shook at 4° C. for 30 min. Plates were centrifuged and 45 μL was removed for plate assays. Assay plate preparation: Meso Scale Discovery (MSD) multi-array sm spot 96 well plates (Goat anti-Rabbit L^45-RA), were blocked with 3% BSA blocking buffer (3% Bovine Serum Albumin (Sigma A3059)+TBS 0.2% Tween-20) for 1 hr with gentle rocking at room temperature. Plates were then washed with 200 μL of 1× TBST (TBS 0.2% Tween-20) 3 times. After last wash, liquid was removed and 50 μL per well of capture antibody (abcam ITK Y402-ab32507) was added to plates at a 1:1000 dilution in blocking buffer (above). Plates were sealed and rocked at room temperature for 2 hrs. Plates were then washed 3 times with 200 μL of 1× TBST. After last wash, liquid was removed and 45 μL of cell lysate (from above) was added to each plate. Plates were sealed and rocked overnight at 4° C. Next day, cell lysates were removed, and assay plates were washed 3 times with 200 μL of 1× TBST. After last wash, liquid was removed and detection antibody (CST ITK (2F12) #2380) was added at 50 μL per well at a dilution of 1:1000 in blocking buffer. Plates were sealed and rocked at room temperature for 2 hrs. Plates were washed 3 times with 200 uL of 1× TBST. After last wash, liquid was removed, MSD Mouse anti-Rabbit sulfo tag (R32AC-1) was diluted to 1:1000 in blocking buffer. 50 μL was added to each well on the plate. Plates were sealed and incubated at room temperature for 1 hr. Plates were washed 3 times with 200 μL of 1× TBST. After last wash, liquid was removed and 150 μL of 1× MSD Read Buffer T ([…]) was then added to each well for ECL read out. For reading ECL signal, plate is read on a Meso Scale Discovery (MSD) MESO Sector S 600 plate reader. Percent ITK in then calculated as described below. Percent ITK remaining per sample was calculated as follows: [formula] Using Graphpad Prism, % ITK remaining values were plotted as a function of compound concentration. To determine DC50 and Dmax values, resulting curves were fit to the Prism curve-fitting equation “log(inhibitor) vs response-Variable slope (four parameters)” (reported best fit value IC50 used as DC50).", "units": {"DC50": "nM", "Dmax": "%"}, "values": [{"compound": "C[C@@]12Cc3[nH]nc(C(=O)Nc4cnn([C@H](c5ccccc5)C5CN(C(=O)C6CN(C7CCN(c8ccc(NC9CCC(=O)NC9=O)cn8)CC7)C6)C5)c4)c3C[C@@H]1C2(F)F", "note": "(stereo partly drawn) [Compound 36, (4aS,5aR)-N-(1-((1S)-(1-(1-(1-(5-((2,6-dioxopiperidin-3-yl)amino)pyridin-2-yl)piperidin-4-yl)azetidine-3-carbonyl)azetidin-3-yl)(phenyl)methyl)-1H-pyrazol-4-yl)-5,5-difluoro-5a-methyl-1,4,4a,5,5a,6-hexahydrocyclopropa[f]indazole-3-carboxamide]", "DC50": 1.6, "Dmax": 72}, {"compound": "C[C@@]12Cc3[nH]nc(C(=O)Nc4cnn([C@H](c5ccccc5)C5CN(C(=O)CCCCc6cccc7c6CN(C6CCC(=O)NC6=O)C7=O)C5)c4)c3C[C@@H]1C2(F)F", "note": "(stereo partly drawn) [Compound 32, (4aS,5aR)-N-(1-((1S)-(1-(5-(2-(2,6-dioxopiperidin-3-yl)-1-oxoisoindolin-4-yl)pentanoyl)azetidin-3-yl)(phenyl)methyl)-1H-pyrazol-4-yl)-5,5-difluoro-5a-methyl-1,4,4a,5,5a,6-hexahydrocyclopropa[f]indazole-3-carboxamide]", "DC50": 25, "Dmax": 69}, {"compound": "C[C@@]12Cc3[nH]nc(C(=O)Nc4cnn([C@H](c5ccccc5)C5CN(C(=O)CCOCCOCCOCCOCCOCCNc6cccc7c6C(=O)N(C6CCC(=O)NC6=O)C7=O)C5)c4)c3C[C@@H]1C2(F)F", "note": "(stereo partly drawn) [Compound 29, (4aS,5aR)-N-(1-((1S)-(1-(1-((2-(2,6-dioxopiperidin-3-yl)-1,3-dioxoisoindolin-4-yl)amino)-3,6,9,12,15-pentaoxaoctadecan-18-oyl)azetidin-3-yl)(phenyl)methyl)-1H-pyrazol-4-yl)-5,5-difluoro-5a-methyl-1,4,4a,5,5a,6-hexahydrocyclopropa[f]indazole-3-carboxamide]", "DC50": 21, "Dmax": 95}, {"compound": "C[C@@]12Cc3[nH]nc(C(=O)Nc4cnn([C@H](c5ccccc5)C5CN(C(=O)CCOCCOCCOCCNc6cccc7c6C(=O)N(C6CCC(=O)NC6=O)C7=O)C5)c4)c3C[C@@H]1C2(F)F", "note": "(stereo partly drawn) [Compound 28, (4aS,5aR)-N-(1-((1S)-(1-(3-(2-(2-(2-((2-(2,6-dioxopiperidin-3-yl)-1,3-dioxoisoindolin-4-yl)amino)ethoxy)ethoxy)ethoxy)propanoyl)azetidin-3-yl)(phenyl)methyl)-1H-pyrazol-4-yl)-5,5-difluoro-5a-methyl-1,4,4a,5,5a,6-hexahydrocyclopropa[f]indazole-3-carboxamide]", "DC50": 3.9, "Dmax": 94}, {"compound": "C[C@@]12Cc3[nH]nc(C(=O)Nc4cnn([C@H](c5ccccc5)C5CN(C(=O)CCOCCOCCOCCOCCOCCOCCOCCOCCNc6cccc7c6C(=O)N(C6CCC(=O)NC6=O)C7=O)C5)c4)c3C[C@@H]1C2(F)F", "note": "(stereo partly drawn) [Compound 30, (4aS,5aR)-N-(1-((1S)-(1-(1-((2-(2,6-dioxopiperidin-3-yl)-1,3-dioxoisoindolin-4-yl)amino)-3,6,9,12,15,18,21,24-octaoxaheptacosan-27-oyl)azetidin-3-yl)(phenyl)methyl)-1H-pyrazol-4-yl)-5,5-difluoro-5a-methyl-1,4,4a,5,5a,6-hexahydrocyclopropa[f]indazole-3-carboxamide]", "DC50": 20, "Dmax": 92}, {"compound": "C[C@@]12Cc3[nH]nc(C(=O)Nc4cnn([C@H](c5ccccc5)C5CN(CCOCCOCCOCCOCCOCCNc6cccc7c6C(=O)N(C6CCC(=O)NC6=O)C7=O)C5)c4)c3C[C@@H]1C2(F)F", "note": "(stereo partly drawn) [Compound 31, (4aS,5aR)-N-(1-((1S)-(1-(17-((2-(2,6-dioxopiperidin-3-yl)-1,3-dioxoisoindolin-4-yl)amino)-3,6,9,12,15-pentaoxaheptadecyl)azetidin-3-yl)(phenyl)methyl)-1H-pyrazol-4-yl)-5,5-difluoro-5a-methyl-1,4,4a,5,5a,6-hexahydrocyclopropa[f]indazole-3-carboxamide]", "DC50": 44, "Dmax": 95}, {"compound": "C[C@@]12Cc3[nH]nc(C(=O)Nc4cnn([C@H](c5ccccc5)C5CN(C(=O)CCOCCNc6cccc7c6C(=O)N(C6CCC(=O)NC6=O)C7=O)C5)c4)c3C[C@@H]1C2(F)F", "note": "(stereo partly drawn) [Compound 27, (4aS,5aR)-N-(1-((1S)-(1-(3-(2-((2-(2,6-dioxopiperidin-3-yl)-1,3-dioxoisoindolin-4-yl)amino)ethoxy)propanoyl)azetidin-3-yl)(phenyl)methyl)-1H-pyrazol-4-yl)-5,5-difluoro-5a-methyl-1,4,4a,5,5a,6-hexahydrocyclopropafindazole-3-carboxamide]", "DC50": 3.8, "Dmax": 92}, {"compound": "CC(C1CN(C(=O)C2CN(C3CCN(c4ccc5c(c4)C(=O)N(C4CCC(=O)NC4=O)C5=O)CC3)C2)C1)n1cc(NC(=O)c2n[nH]c3c2C[C@@H]2C(F)(F)[C@]2(C)C3)cn1", "note": "(stereo partly drawn) [Compound 39, (4aS,5aR)-N-(1-(1-(1-(1-(1-(2-(2,6-dioxopiperidin-3-yl)-1,3-dioxoisoindolin-5-yl)piperidin-4-yl)azetidine-3-carbonyl)azetidin-3-yl)ethyl)-1H-pyrazol-4-yl)-5,5-difluoro-5a-methyl-1,4,4a,5,5a,6-hexahydrocyclopropa[f]indazole-3-carboxamide]", "DC50": 0.88, "Dmax": 94}, {"compound": "C[C@@]12Cc3[nH]nc(C(=O)Nc4cnn([C@H](c5ccccc5)C5CN(CC6CN(c7ccc8c(c7)C(=O)N(C7CCC(=O)NC7=O)C8=O)CCO6)C5)c4)c3C[C@@H]1C2(F)F", "note": "(stereo partly drawn) [Compound 41, (4aS,5aR)-N-(1-((1S)-(1-((4-(2-(2,6-dioxopiperidin-3-yl)-1,3-dioxoisoindolin-5-yl)morpholin-2-yl)methyl)azetidin-3-yl)(phenyl)methyl)-1H-pyrazol-4-yl)-5,5-difluoro-5a-methyl-1,4,4a,5,5a,6-hexahydrocyclopropa[f]indazole-3-carboxamide]", "DC50": 0.57, "Dmax": 86}]}]}
